Measurements: patent publication US20260041629A1, “Methods and Systems to Reduce Injury in Treated Tissues” (MileHigh Repro Solutions, LLC, priority 2022, published 2026)

Assays:
[1] = system: boar sperm; experiment: Experiment 2: compatibility with sperm in vitro (motility by computer assisted sperm analyzer); type: cell-based; details: exposure 3 hours, 37° C
Description: A successful cervical softening agent should be safe for a mammal's tissues and also for sperm used to inseminate the mammal. It was anticipated that the cervical tract and the AI rod will each retain a residue of the solution treatment which may then combine with the semen inside the cervix or uterus. Therefore, experiments were performed using sperm samples from boars to evaluate the toxicity of each proposed treatment and blends.
Extended boar sperm doses (28×10^6/ml; 1 ml) were incubated with each of the miscible solutions at 3 concentrations, 0.1 μL, 0.5 μL, or 1 μL per 1 mL extended sperm, then the sperm with the solution were incubated for 3 hours at 37° C. Motility characteristics were measured via computer assisted sperm analyzer. This experiment was replicated 4 times.

[2] = system: ewe cervices; experiment: Experiment 1: in vitro efficacy of solution, AI rod passage through excised cervical tracts; details: ¼ cc rod, tracts treated 1 hour, * = statistically significant improvement over control
Description: Ewe and bison cervical tracts were obtained to assess local responses in living tissue thereby modeling in vivo response to a solution. Tracts were treated for 1 hour with the respective solution using an absorbent matrix applicator, then ¼ cc AI rods were passed through the cervix, mimicking trans-cervical artificial insemination. A total of […] tracts were utilized with each of 13 treatments tested in 11 replicates. The estimated number of rings passed was recorded. Post-treatment tracts were dissected, then length and cervical anatomy were recorded, and relationships between cervical structure, ring number and position were and analyzed. Ring passage data was transformed into a percentage of rings passed to normalize the data and to allow comparison across an undefined variety of tissues, breeds, ages, and other etiological differences. A paired T-test indicated trends in increased passage of AI rod (P=0.064) when treating the cervix versus control.

CCCC[N+]1(C)[C@@H]2C[C@@H](OC(=O)[C@H](CO)c3ccccc3)C[C@H]1[C@@H]1O[C@@H]12 (stereo partly shown) [Extract F, hyoscine butylbromide]
Sperm motility, motile percentage of the total number of spermatozoa ([1]; dose 0.1 μL in 1 mL sperm): 90.7% | Sperm motility, motile percentage of the total number of spermatozoa ([1]; dose 0.5 μL in 1 mL sperm): 93.3% | Sperm motility, motile percentage of the total number of spermatozoa ([1]; dose 1 μL in 1 mL sperm): 91.8% | Avg. % Cervical rings passed [2]: 50.02* %
